Experiments:
B. subtilis 168 [1] = experiment: fitness (endpoint OD595 vs no drug) (fraction); higher = more growth
In short: (§1)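 Cultures at OD595 0.01 were dispensed into 384-well plates in TSB, LB Lennox or CY and incubated at 37 °C. Every 30 min for 14 h, OD595 was read and corrected by the first reading. Fitness is the optical density at entry into stationary phase relative to the robust mean of no-drug control wells, capped at 1.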

S. aureus Newman [2] = experiment: as above
In short: as §1

B. subtilis 168 [3] = experiment: Bliss interaction score (quartile over a dose matrix) (fitness difference); higher = more antagonism (negative = synergy)
In short: (§2)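 The Bliss score is observed minus expected fitness, where expected fitness is the product of the single-drug fitness values inferred from the combination data. Fitness is the OD595 at the onset of stationary phase over the plate's robust no-drug mean, capped at 1. Scores are summarised by quartiles over technical, biological and donor/recipient replicates.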

S. aureus DSM 20231 = experiment: as above
In short: as §2

S. aureus Newman [4] = experiment: as above
In short: as §2

S. pneumoniae D39V [5] = experiment: as above
In short: as §2

S. pneumoniae D39V [6] = experiment: fitness (endpoint OD595 vs no drug) (fraction); higher = more growth
In short: as §1
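Wherever Bliss interaction score (quartile over a dose matrix) is given: first quartile when negative (synergy) and third quartile when positive (antagonism).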

CC[C@H](C)[C@H](N)C1=N[C@H](C(=O)N[C@@H](CC(C)C)C(=O)N[C@H](CCC(=O)O)C(=O)N[C@H](C(=O)N[C@H]2CCCCNC(=O)[C@H](CC(N)=O)NC(=O)[C@@H](CC(=O)O)NC(=O)[C@H](Cc3cnc[nH]3)NC(=O)[C@@H](Cc3ccccc3)NC(=O)[C@H]([C@@H](C)CC)NC(=O)[C@@H](CCCN)NC2=O)[C@@H](C)CC)CS1 [Bacitracin] + O=C(O[C@@H]1Cc2c(O)cc(O)cc2O[C@@H]1c1cc(O)c(O)c(O)c1)c1cc(O)c(O)c(O)c1 [EGCG]
fitness, main component drawn
Conditions	first compound 18.75 µg/mL	first compound 37.5 µg/mL	first compound 75 µg/mL	first compound 150 µg/mL
B. subtilis 168 [1], partner 6.25 µg/mL	–	0.876	0.885	0.827
B. subtilis 168 [1], partner 12.5 µg/mL	–	–	–	0.562
S. aureus Newman [2], partner 12.5 µg/mL	0.73	0.43	0.0108	–
S. aureus Newman [2], partner 25 µg/mL	0.632	0.283	0.0073	–
S. aureus Newman [2], partner 50 µg/mL	0.444	0.192	0.0184	–

main component drawn
Conditions	Bliss interaction score
B. subtilis 168 [3]	0.0767
S. aureus DSM 20231	-0.0223
S. aureus Newman [4]	0.124
S. pneumoniae D39V [5]	-0.0707

CN[C@@H]1[C@H](O)[C@H](NC)[C@H]2O[C@@]3(O)C(=O)C[C@@H](C)O[C@H]3O[C@@H]2[C@H]1O [Spectinomycin] + CN(C)c1cc(NC(=O)CNC(C)(C)C)c(O)c2c1C[C@H]1C[C@H]3[C@H](N(C)C)C(O)=C(C(N)=O)C(=O)[C@@]3(O)C(O)=C1C2=O [Tigecycline]
fitness
Conditions	first compound 2 µg/mL	first compound 4 µg/mL	first compound 8 µg/mL	first compound 16 µg/mL
B. subtilis 168 [1], partner 0.039 µg/mL	0.976	≥ 1	0.978	–
B. subtilis 168 [1], partner 0.078 µg/mL	0.959	0.968	0.927	–
B. subtilis 168 [1], partner 0.156 µg/mL	1	≥ 1	0.889	–
S. aureus Newman [2], partner 0.039 µg/mL	–	0.912	0.918	0.904
S. aureus Newman [2], partner 0.078 µg/mL	–	0.954	0.928	0.908
S. aureus Newman [2], partner 0.156 µg/mL	–	0.938	0.961	0.929
S. pneumoniae D39V [6], partner 0.65 µg/mL	–	0.951	0.896	0.747
S. pneumoniae D39V [6], partner 1.3 µg/mL	–	0.981	0.905	0.788
S. pneumoniae D39V [6], partner 2.6 µg/mL	–	0.941	0.896	0.761

fitness, one replicate
Conditions	partner 0.039 µg/mL	partner 0.078 µg/mL	partner 0.125 µg/mL	partner 0.156 µg/mL	partner 0.25 µg/mL	partner 0.5 µg/mL
B. subtilis 168 [1], first compound 2 µg/mL	–	–	≥ 1	–	0.994	0.937
B. subtilis 168 [1], first compound 4 µg/mL	–	–	≥ 1	–	0.944	≥ 1
B. subtilis 168 [1], first compound 8 µg/mL	–	–	0.941	–	0.931	≥ 1
S. aureus Newman [2], first compound 32 µg/mL	0.592	0.585	–	0.603	–	–
S. aureus Newman [2], first compound 64 µg/mL	0.105	0.0894	–	0.1	–	–

Conditions	Bliss interaction score
B. subtilis 168 [3]	0.043
S. aureus DSM 20231	-0.0602
S. aureus Newman [4]	0.0622
S. pneumoniae D39V [5]	0.0451

CN[C@@H]1[C@H](O)[C@H](NC)[C@H]2O[C@@]3(O)C(=O)C[C@@H](C)O[C@H]3O[C@@H]2[C@H]1O [Spectinomycin] + CN[C@@H]1[C@H](O[C@H]2[C@H](O[C@H]3[C@H](O)[C@@H](O)[C@H](N=C(N)N)[C@@H](O)[C@@H]3N=C(N)N)O[C@@H](C)[C@]2(O)C=O)O[C@@H](CO)[C@H](O)[C@H]1O [Streptomycin]
fitness
Conditions	first compound 2 µg/mL	first compound 4 µg/mL	first compound 8 µg/mL	first compound 16 µg/mL
B. subtilis 168 [1], partner 2 µg/mL	0.928	0.973	0.894	–
B. subtilis 168 [1], partner 4 µg/mL	–	–	0.623	–
B. subtilis 168 [1], partner 8 µg/mL	0.148	0.0533	0.0588	–
S. aureus Newman [2], partner 1 µg/mL	–	0.956	0.943	0.906
S. aureus Newman [2], partner 2 µg/mL	–	0.926	0.975	–
S. pneumoniae D39V [6], partner 2 µg/mL	–	0.946	0.89	–
S. pneumoniae D39V [6], partner 4 µg/mL	–	0.952	0.878	0.83
S. pneumoniae D39V [6], partner 8 µg/mL	–	0.921	0.89	0.822

one replicate
Conditions	fitness
S. aureus Newman [2], first compound 16 µg/mL, partner 8 µg/mL	0.0211
S. aureus Newman [2], first compound 32 µg/mL, partner 2 µg/mL	0.455
S. aureus Newman [2], first compound 32 µg/mL, partner 4 µg/mL	0.342
S. aureus Newman [2], first compound 32 µg/mL, partner 8 µg/mL	0.0569
S. aureus Newman [2], first compound 64 µg/mL, partner 2 µg/mL	0.0619
S. aureus Newman [2], first compound 64 µg/mL, partner 4 µg/mL	0.0473
S. aureus Newman [2], first compound 64 µg/mL, partner 8 µg/mL	0.0327
S. pneumoniae D39V [6], first compound 4 µg/mL, partner 16 µg/mL	0.882
S. pneumoniae D39V [6], first compound 8 µg/mL, partner 16 µg/mL	0.842
S. pneumoniae D39V [6], first compound 16 µg/mL, partner 2 µg/mL	0.84
S. pneumoniae D39V [6], first compound 16 µg/mL, partner 16 µg/mL	0.705

Conditions	Bliss interaction score
B. subtilis 168 [3]	0.0835
S. aureus DSM 20231	0.126
S. aureus Newman [4]	0.0625
S. pneumoniae D39V [5]	0.0931

CN[C@@H]1[C@H](O[C@H]2[C@H](O[C@H]3[C@H](O)[C@@H](O)[C@H](N=C(N)N)[C@@H](O)[C@@H]3N=C(N)N)O[C@@H](C)[C@]2(O)C=O)O[C@@H](CO)[C@H](O)[C@H]1O [Streptomycin] + CC1=C\[C@@H](O)CC(=O)Cc2nc(co2)C(=O)N2CCC=C2C(=O)O[C@H](C(C)C)[C@H](C)/C=C/C(=O)NC\C=C\1 [Virginiamycin M1]
fitness
Conditions	first compound 1 µg/mL	first compound 2 µg/mL	first compound 4 µg/mL	first compound 8 µg/mL
B. subtilis 168 [1], partner 0.0625 µg/mL	–	0.962	–	0.0325
B. subtilis 168 [1], partner 0.125 µg/mL	–	0.966	0.429	0.0265
B. subtilis 168 [1], partner 0.25 µg/mL	–	≥ 1	0.453	0.0334
S. aureus Newman [2], partner 0.0625 µg/mL	1	0.879	–	–
S. aureus Newman [2], partner 0.125 µg/mL	0.996	0.891	–	–
S. aureus Newman [2], partner 0.25 µg/mL	0.978	0.916	–	–
S. pneumoniae D39V [6], partner 0.5 µg/mL	–	0.977	0.998	0.931
S. pneumoniae D39V [6], partner 1 µg/mL	–	0.955	0.99	0.884
S. pneumoniae D39V [6], partner 2 µg/mL	–	0.917	0.944	0.921

fitness, one replicate
Conditions	partner 0.15 µg/mL	partner 0.3 µg/mL	partner 0.5 µg/mL	partner 1 µg/mL	partner 2 µg/mL
S. aureus Newman [2], first compound 2 µg/mL	–	–	0.804	0.911	0.812
S. aureus Newman [2], first compound 4 µg/mL	–	–	0.865	0.86	0.82
S. aureus Newman [2], first compound 8 µg/mL	–	–	0.811	0.845	0.708
S. pneumoniae D39V [6], first compound 2 µg/mL	0.928	0.912	–	–	–
S. pneumoniae D39V [6], first compound 4 µg/mL	0.925	0.929	–	–	–
S. pneumoniae D39V [6], first compound 8 µg/mL	0.917	0.941	–	–	–
S. pneumoniae D39V [6], first compound 16 µg/mL	–	–	0.866	0.844	0.776

Conditions	Bliss interaction score
B. subtilis 168 [3]	-0.124
S. aureus DSM 20231	-0.161
S. aureus Newman [4]	0.0782
S. pneumoniae D39V [5]	0.0533

CN[C@@H]1[C@H](O[C@H]2[C@H](O[C@H]3[C@H](O)[C@@H](O)[C@H](N=C(N)N)[C@@H](O)[C@@H]3N=C(N)N)O[C@@H](C)[C@]2(O)C=O)O[C@@H](CO)[C@H](O)[C@H]1O [Streptomycin] + CN[C@H](CC(C)C)C(=O)N[C@H]1C(=O)N[C@@H](CC(N)=O)C(=O)N[C@H]2C(=O)N[C@H]3C(=O)N[C@H](C(=O)N[C@H](C(=O)O)c4cc(O)cc(O)c4-c4cc3ccc4O)[C@H](O)c3ccc(c(Cl)c3)Oc3cc2cc(c3O[C@@H]2O[C@H](CO)[C@@H](O)[C@H](O)[C@H]2O[C@H]2C[C@](C)(N)[C@H](O)[C@H](C)O2)Oc2ccc(cc2Cl)[C@H]1O [Vancomycin]
fitness
Conditions	first compound 1 µg/mL	first compound 2 µg/mL	first compound 4 µg/mL	first compound 8 µg/mL
S. aureus Newman [2], partner 0.1875 µg/mL	0.959	0.941	–	–
S. aureus Newman [2], partner 0.375 µg/mL	0.952	0.946	–	–
S. aureus Newman [2], partner 0.75 µg/mL	0.978	0.944	–	–
S. pneumoniae D39V [6], partner 0.03125 µg/mL	–	0.978	0.956	0.941
S. pneumoniae D39V [6], partner 0.0625 µg/mL	–	0.921	0.969	0.913
S. pneumoniae D39V [6], partner 0.125 µg/mL	–	0.942	0.942	–
S. pneumoniae D39V [6], partner 0.25 µg/mL	–	–	0.704	0.691
S. pneumoniae D39V [6], partner 0.5 µg/mL	–	–	0.0741	0.0434

fitness, S. pneumoniae D39V [6], one replicate
Conditions	partner 0.125 µg/mL	partner 0.25 µg/mL	partner 0.5 µg/mL
first compound 2 µg/mL	–	0.422	0.0318
first compound 16 µg/mL	0.825	0.112	0.0914

Conditions	Bliss interaction score
B. subtilis 168 [3]	-0.0393
S. aureus DSM 20231	0.0918
S. aureus Newman [4]	0.055
S. pneumoniae D39V [5]	0.088

CN[C@@H]1[C@H](O[C@H]2[C@H](O[C@H]3[C@H](O)[C@@H](O)[C@H](N=C(N)N)[C@@H](O)[C@@H]3N=C(N)N)O[C@@H](C)[C@]2(O)C=O)O[C@@H](CO)[C@H](O)[C@H]1O [Streptomycin] + Cn1nnc(-c2ccc(-c3ccc(N4C[C@H](CO)OC4=O)cc3F)cn2)n1 [Tedizolid]
fitness
Conditions	partner 0.03125 µg/mL	partner 0.0625 µg/mL	partner 0.125 µg/mL	partner 0.25 µg/mL	partner 0.5 µg/mL
S. aureus Newman [2], first compound 1 µg/mL	–	0.928	0.767	–	–
S. pneumoniae D39V [6], first compound 2 µg/mL	0.896	0.952	0.811	–	–
S. pneumoniae D39V [6], first compound 4 µg/mL	0.898	0.886	0.788	0.739	0.336
S. pneumoniae D39V [6], first compound 8 µg/mL	0.893	0.912	0.829	0.732	0.353

fitness, S. pneumoniae D39V [6], one replicate
Conditions	partner 0.125 µg/mL	partner 0.25 µg/mL	partner 0.5 µg/mL
first compound 2 µg/mL	–	0.748	0.373
first compound 16 µg/mL	0.695	0.531	0.236

Conditions	Bliss interaction score
B. subtilis 168 [3]	0.189
S. aureus DSM 20231	0.155
S. aureus Newman [4]	-0.188
S. pneumoniae D39V [5]	-0.057

Reference: the supplement of paper PMC10627819
